Legend:
[1] = target: T1, human adenosine-A2A receptors (Homo sapiens, UniProt P29274); experiment: In vitro affinity for human adenosine-A2A receptors, [3H]CGS 21680 radioligand binding; conditions: human recombinant receptors expressed in HEK-293 cells, read-out: Adenosine receptor affinity A2A pKi (converted)
T1 construct: expressed in transfected cells; host or cells: HEK-293 cells
Protocol: Affinity of the compounds for human adenosine-A2A receptors was determined using the receptor binding assay described by D. R. Luthin et al. (Mol. Pharmacol., 47, 307, 1995), using human recombinant receptors expressed in HEK-293 cells, and [^3H]CGS 21680 as radioligand.

[2] = target: T2, human adenosine-A1 receptors (Homo sapiens, UniProt P30542); experiment: In vitro affinity for human adenosine-A1 receptors, [3H]DPCPX radioligand binding; conditions: human recombinant receptors expressed in CHO cells, read-out: Adenosine receptor affinity A1 pKi (converted)
T2 construct: expressed in transfected cells; host or cells: CHO cells
T2 sequence (P30542 1-326): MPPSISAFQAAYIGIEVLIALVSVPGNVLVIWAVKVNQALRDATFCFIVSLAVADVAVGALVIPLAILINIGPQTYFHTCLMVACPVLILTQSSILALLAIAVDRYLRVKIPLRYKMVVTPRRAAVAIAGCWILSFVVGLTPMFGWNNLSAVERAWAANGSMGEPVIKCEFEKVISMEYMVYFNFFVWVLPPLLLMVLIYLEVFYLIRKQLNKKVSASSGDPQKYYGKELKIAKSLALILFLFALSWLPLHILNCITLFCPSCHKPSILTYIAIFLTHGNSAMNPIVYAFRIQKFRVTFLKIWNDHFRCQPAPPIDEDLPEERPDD
Protocol: Affinity of the compounds for human adenosine-A1 receptors was determined using the receptor binding assay described by A. Townsend-Nicholson and P. R. Schofield (Biol. Chem., 269, 2373, 1994), using human recombinant receptors expressed in CHO cells, and [^3H]DPCPX as radioligand.

[3] = target: T3, human adenosine-A3 receptor (Homo sapiens, UniProt P0DMS8); experiment: In vitro affinity for human adenosine-A3 receptors, [125I]-AB-MECA radioligand binding; conditions: human recombinant (HEK 293) cell membranes, read-out: Adenosine receptor affinity A3 pKi (converted)
T3 construct: expressed in transfected cells; membrane preparations
T3 sequence (P0DMS8 1-318): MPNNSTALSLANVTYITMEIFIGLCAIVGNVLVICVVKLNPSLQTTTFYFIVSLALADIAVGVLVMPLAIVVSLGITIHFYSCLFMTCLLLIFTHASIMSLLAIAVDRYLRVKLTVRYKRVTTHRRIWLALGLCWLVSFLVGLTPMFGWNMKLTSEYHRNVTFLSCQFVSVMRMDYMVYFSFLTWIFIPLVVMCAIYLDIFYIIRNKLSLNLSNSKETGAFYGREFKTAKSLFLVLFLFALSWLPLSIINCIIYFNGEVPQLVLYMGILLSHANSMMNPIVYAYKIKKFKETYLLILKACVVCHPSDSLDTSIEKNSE
Protocol: Affinity of the compounds for human adenosine-A3 receptors was determined using the receptor binding assay described by C. A. Salvatore et al.: “Molecular cloning and characterization of the human A3 adenosine receptor”, Proc. Natl. Acad. Sci. USA, 90, 10365-10369, 1993. Briefly, membrane preparations were obtained from human recombinant (HEK 293) cells in which the human adenosine-A3 receptor was stably expressed. Membranes were incubated at 22° C. for 90 minutes with [^125I]-AB-MECA in the absence or presence of test compounds in a concentration range from 10 μM down to 0.1 nM, diluted in a suitable buffer. Separation of bound radioactivity from free was done by filtration through Packard GF/B glass fiber filters with several washings with ice-cold buffer using a Packard cell harvester. Bound radioactivity was measured with a scintillation counter (Topcount, Packard) using a liquid scintillation cocktail (Microscint 0, Packard). Measured radioactivity was plotted against the concentration of the displacing test compound and displacement curves were calculated by four-parameter logistic regression, resulting in IC50 values, i.e. that concentration of displacing compound by which 50% of the radioligand is displaced. […]

T1 sequence (P29274 whole entry): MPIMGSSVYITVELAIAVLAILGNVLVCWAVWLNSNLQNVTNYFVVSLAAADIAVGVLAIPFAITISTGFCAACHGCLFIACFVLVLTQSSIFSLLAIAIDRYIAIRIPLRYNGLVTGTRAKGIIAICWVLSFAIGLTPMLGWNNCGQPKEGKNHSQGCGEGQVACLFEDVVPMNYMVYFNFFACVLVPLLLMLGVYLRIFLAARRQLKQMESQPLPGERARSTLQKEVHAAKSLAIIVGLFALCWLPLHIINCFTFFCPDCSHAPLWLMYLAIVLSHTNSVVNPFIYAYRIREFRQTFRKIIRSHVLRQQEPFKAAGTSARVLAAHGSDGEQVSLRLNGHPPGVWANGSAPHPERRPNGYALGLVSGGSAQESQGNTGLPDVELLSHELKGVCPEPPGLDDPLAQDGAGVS

| SMILES | Ki [1] [µM] | Ki [2] [µM] | melting point [°C] | Ki [3] [µM] |
| --- | --- | --- | --- | --- |
| Cn1cnc2c(N)cc(N[C@H]3CC[C@@H](O)CC3)nc21 [Compound 2, 2-(cis-4-hydroxycyclohexylamino)-6-amino-9-methyl-1-deazapurine] | 7.94 | – | – | – |
| COc1ccc(C=NNc2cc(N)c3ncn(C)c3n2)c(OC)c1 [Compound 6, 2-(2,4-dimethoxy-2-benzylhydrazon)-6-amino-9-methyl-1-deazapurine] | 2 | 6.31 | – | – |
| Cn1cnc2c(N)cc(NN=Cc3ccccc3)nc21 [Compound 4, 2-benzylhydrazone-6-amino-9-methyl-1-deazapurine] | 1.26 | 3.98 | 231.7 to 232.8 | 2.51 |
| Cn1cnc2c(N)cc(N3OC4C=CC3CC4)nc21 (stereo not drawn) [Compound 1, 2-(2-oxa-3-azabicyclo[2.2.2]oct-5-en-3-yl)-6-amino-9-methyl-1-deazapurine] | 15.8 | – | 169.9 | – |
| Cn1cnc2c(N)cc(NN=CC3CCCCC3)nc21 [Compound 8, 2-(cyclohexylmethyl-hydrazone)-6-amino-9-methyl-1-deaza-purine] | 2 | 3.16 | – | – |
| COc1ccc(C=NNc2cc(N)c3ncn(C)c3n2)cc1 [Compound 5, 2-(4-methoxy-2-benzylhydrazon)-6-amino-9-methyl-1-deazapurine] | 1 | – | – | – |
| Cn1cnc2c(N)cc(NN=CCc3ccccc3)nc21 [Compound 3, 2-(2-phenylethyl-hydrazone)-6-amino-9-methyl-1-deazapurine] | 3.16 | 2.51 | 182.1 | – |
